Results on seven compounds are retold here after patent US4894376A, “Methods of treating diseases characterized by hyperexcitability of neurons” (Trustees of the University of Pennsylvania, priority 1988, dated 1990).

In assay [1] the test system is T type calcium channel. As to the kind of experiment: Patch clamp (voltage clamp) of T type calcium channel current in neuroblastoma cells. It counts as cell-based, mouse. To be noted: for T type calcium channel current: 1 uM, neuroblastoma cells, FIG. 3. A general note: In patch-clamp work, channel activity is measured electrically.
Assay [2] deals with T type calcium channel. As to the kind of experiment: Patch clamp (voltage clamp) of T type calcium channel current in chick dorsal root ganglion neurons. It counts as cell-based, chick (gallus domesticus). To be noted: DRG neurons; FIG. 2B.
The subject of a further assay is L type calcium channel. As to the kind of experiment: Patch clamp (voltage clamp) of L type calcium channel current in neuroblastoma cells. It counts as cell-based, mouse.
The subject of the next assay is SA node. To be noted: cited from earlier work.
In a further assay the test system is neuroblastoma cell. As to the kind of experiment: Current clamp measurement of membrane potential of a neuroblastoma cell. The class given is cell-based, mouse.
A further assay relates to right atrium. To be noted: spontaneously beating right atrium; cited from earlier work.
Assay [3] has as its system L and T type calcium channels. To be noted: cited from earlier work.
Another assay deals with frog atrial cells. To be noted: cited from earlier work.

As for `N=C(N)NC(=O)c1nc(Cl)c(N)nc1N` [amiloride], the “T type calcium channel current (transient current)” value with T type calcium channel [1] (N1E-115 cells, held at -90 mV, depolarization to -20 mV, FIG. 1A, 1C) is “suppresses this T type channel current”. Also, in the assay on T type calcium channel [2], the “T type calcium channel current” value is recorded as “completely suppressed the T type calcium channel current”. Also, the “L type calcium channel current (slow inactivating current)” value with L type calcium channel (N1E-115 cells, held at -90 mV, depolarization to +20 mV, FIG. 1A, 1D) is “does not appreciably suppress this L type channel current”. The chronotropic action result in the assay on SA node is “negative chronotropic action on the SA node”. Also, the “neuronal excitability near threshold” value with neuroblastoma cell (250 uM, current pulse to threshold and slightly above threshold, FIG. 5) was “suppress neuronal excitability at membrane potential near the threshold for regenerative depolarization”. In addition, in the assay with neuroblastoma cell (250 uM, higher degree of stimulation, FIG. 5), the “depolarization well above threshold” value was “does not block the depolarization at higher degree of stimulation”. Further, the frequency of contractions entry with right atrium is reported as “decreased the frequency of contractions of the spontaneously beating right atrium”.
For `COc1ccc([C@@H]2Sc3ccccc3N(CCN(C)C)C(=O)[C@@H]2OC(C)=O)cc1` [diltiazem], in assay [3], the “calcium channel type blocked” value was “block both the L and T type calcium channels”.
Consider `COC(=O)C1=C(C)NC(C)=C(C(=O)OC)C1c1ccccc1[N+](=O)[O-]` [Nifidepine, nifidepine], for which, in assay [3], the “calcium channel type blocked” value was “blocks only the L type calcium channel”.
As for `COc1ccc(CNC(=N)NC(=O)c2nc(Cl)c(N)nc2N)cc1OC` [Dimethoxybenzamil, 3,4-dimethoxybenzamil], the “T type calcium channel current” value with T type calcium channel [1] was “similarly suppresses the T type current”.
Take `COc1ccc(CCN(C)CCCC(C#N)(c2ccc(OC)c(OC)c2)C(C)C)cc1OC` (stereo not shown) [Verapamil, verapamil]: the “calcium channel type blocked” value in assay [3] was “block both the L and T type calcium channels”.
For the compound `N=C(NCc1ccccc1)NC(=O)c1nc(Cl)c(N)nc1N` [benzamil], the “T type calcium channel current” value in the assay with T type calcium channel [1] is given as “reversably suppresses the bulk of the T type calcium channel current”. In the assay on T type calcium channel [1] (relative to amiloride), the “increase of T channel activity by addition of a benzyl moiety to the guanidine portion of amiloride” value is “about fifty”. Besides, in the assay with L type calcium channel (1 uM, neuroblastoma cells, FIG. 3), the L type current result was “without suppressing the L type current”. Further, in the assay on neuroblastoma cell (5 uM, after 1 uM TTX, current pulses of 40 picoamps, FIG. 4), the regenerative depolarization result was “further decreased the regenerative depolarization”.
Regarding `N=C(NCc1ccc(Cl)c(Cl)c1)NC(=O)c1nc(Cl)c(N)nc1N` [3,4-dichlorobenzamil], the calcium currents result in the assay with frog atrial cells is listed as “inhibited calcium currents in frog atrial cells”.
